Data as given in US7320984B2, “Remedies or preventives for urinary frequency or urinary incontinence and morphinan derivatives having nitrogen-containing heterocyclic group” (Toray Industries, Inc., priority 2002, dated 2008).

test system: rhythmic bladder contractions in rats; assay: Inhibitory effect against rhythmic bladder contractions in rats; format: in vivo; details: anesthetized female SD rats, intravenous, dose 0.005 mg/kg body weight
Experimental: Inhibitory Effect Against Rhythmic Bladder Contractions in Rats
Female SD rats were anesthetized with an intraperitoneal administration of urethane (1.0 g/kg). A polyethylene tube was inserted from the urethra to the bladder and the tube was fixed by ligation. Then physiological saline was appropriately infused (infusion rate: about 0.2 ml/min., maximum: about 1.5 ml/animal) through the tube to cause rhythmic bladder contractions. The rhythmic bladder contractions were monitored by measuring the intravesical pressure through a polyethylene tube inserted into the bladder. After confirming that stable rhythmic bladder contractions occurred at least 10 times, a vehicle containing a prescribed dose of a test compound was intravenously administration at a dose of 1 ml/kg. In cases where the intravesical pressure, within 10 minutes after the administration of the test compound, decreased to 50% or less of the intravesical pressure immediately […] the administration, the test compound was judged as having inhibitory effect against urinary bladder contractions, and the time period until the intravesical pressure returned to more than 50% was defined as inhibitory time of rhythmic bladder contractions. As the vehicle for administration, physiological saline was used for test compounds 4, 7, 8, 9, 10, 13, 29, 30, 31, 33, 34, 75, 76, 79, 80, 81, 82, 84, 89, 90, 91, 93, 94, 95, 110 and 111, aqueous 10% dimethylsulfoxide (DMSO) solution was used for test compounds 11, 12, 14, 15, 16, 17, 18, 20, 21, 23, 28, 46, 47, 50, 55, 56, 57, 58, 59, 60, 61, 62, 63, 64, 65, 66, 68, 69, 70, 71, 72, 73, 74, 77, 78, 83, 85, 86, 87, 88, 92, 96, 97, 98, 99, 100, […], 103, 104, 105, 106, 107, 108 and […], aqueous 20% dimethylsulfoxide (DMSO) solution was used for test compounds 1, 2, 67 and 101, and aqueous 5% xylitol solution was used for test compounds 5 and 35. The aqueous 10% DMSO solution, aqueous 20% DMSO solution and the aqueous 5% xylitol solution per se, which may influence on the inhibitory time of rhythmic bladder contractions, were also tested at a dose of 1 ml/kg. With any of the compounds, prolongation of the inhibitory time of rhythmic bladder contractions was observed when compared with that obtained in the group to which the vehicle alone was administered.

SMILES | Mean Inhibitory Time of Rhythmic Bladder Contractions
C=CCN1CC[C@]23c4c5ccc(O)c4O[C@H]2[C@@H](N2C(=O)c4cccc(F)c4C2=O)CC[C@@]3(O)[C@H]1C5 [Compound 63, N-(17-allyl-4,5α-epoxy-3,14-dihydroxymorphinan-6α-yl)-3-fluorophthalimide] | 16.1 min

same assay, conditions: anesthetized female SD rats, intravenous, dose 0.01 mg/kg body weight

SMILES | Mean Inhibitory Time of Rhythmic Bladder Contractions
O=C1c2ccc(Cl)cc2C(=O)N1[C@@H]1CC[C@@]2(O)[C@H]3Cc4ccc(O)c5c4[C@@]2(CCN3CC2CC2)[C@H]1O5 [Compound 15, N-(17-cyclopropylmethyl-4,5α-epoxy-3,14-dihydroxy-morphinan-6β-yl)-4-chlorophthalimide] | 12.2 min
C=CCN1CC[C@]23c4c5ccc(O)c4O[C@H]2[C@H](N2C(=O)c4cccc(F)c4C2=O)CC[C@@]3(O)[C@H]1C5 [Compound 62, N-(17-allyl-4,5α-epoxy-3,14-dihydroxymorphinan-6β-yl)-3-fluorophthalimide] | 15.3 min

same assay, conditions: anesthetized female SD rats, intravenous, dose 0.03 mg/kg body weight

SMILES | Mean Inhibitory Time of Rhythmic Bladder Contractions
C=CCN1CC[C@]23c4c5ccc(O)c4O[C@H]2[C@H](N2C(=O)c4cccc(C)c4C2=O)CC[C@@]3(O)[C@H]1C5 [Compound 60, N-(17-allyl-4,5α-epoxy-3,14-dihydroxymorphinan-6β-yl)-3-methylphthalimide] | 19.7 min
O=C1c2cc(F)ccc2CN1[C@@H]1CC[C@@]2(O)[C@H]3Cc4ccc(O)c5c4[C@@]2(CCN3CC2CC2)[C@H]1O5 [Compound 82, 2-(17-cyclopropylmethyl-4,5α-epoxy-3,14-dihydroxy-morphinan-6β-yl)-6-fluoro-2,3-dihydro-isoindol-1-one] | 19.9 min
C=CCN1CC[C@]23c4c5ccc(O)c4O[C@H]2[C@@H](N2C(=O)c4cccc(C)c4C2=O)CC[C@@]3(O)[C@H]1C5 [Compound 61, N-(17-allyl-4,5α-epoxy-3,14-dihydroxymorphinan-6α-yl)-3-methylphthalimide] | 22.6 min
C=CCN1CC[C@]23c4c5ccc(O)c4O[C@H]2[C@@H](N2C(=O)C4=C(CCCC4)C2=O)CC[C@@]3(O)[C@H]1C5 [Compound 74, N-(17-allyl-4,5α-epoxy-3,14-dihydroxymorphinan-6α-yl)-3,4,5,6-tetrahydrophthalimide] | 24.0 min

same assay, conditions: anesthetized female SD rats, intravenous, dose 0.1 mg/kg body weight

SMILES | Mean Inhibitory Time of Rhythmic Bladder Contractions
O=C1[C@H]2CC=CC[C@H]2C(=O)N1[C@@H]1CC[C@@]2(O)[C@H]3Cc4ccc(O)c5c4[C@@]2(CCN3CC2CC2)[C@H]1O5 [Compound 78, N-(17-cyclopropylmethyl-4,5α-epoxy-3,14-dihydroxy-morphinan-6β-yl)-cis-1,2,3,6-tetrahydrophthalimide] | 13.4 min
C=CCN1CC[C@]23c4c5ccc(O)c4O[C@H]2[C@@H](N2CC4=C(CCCC4)C2=O)CC[C@@]3(O)[C@H]1C5 [Compound 85, 2-(17-allyl-4,5α-epoxy-3,14-dihydroxy-morphinan-6α-yl)-2,3,4,5,6,7-hexahydro-isoindol-1-one] | 6.9 min
Nc1cccc2c1C(=O)N([C@@H]1CC[C@@]3(O)[C@H]4Cc5ccc(O)c6c5[C@@]3(CCN4CC3CC3)[C@H]1O6)C2=O [Compound 97, N-(17-cyclopropylmethyl-4,5α-epoxy-3,14-dihydroxy-morphinan-6β-yl)-3-amino-phthalimide] | 11.2 min
CN1CC[C@]23c4c5ccc(O)c4O[C@H]2[C@H](N2CCSc4ccccc42)CC[C@H]3[C@H]1C5 [Compound 2, 4,5α-epoxy-6β-(3,4-dihydro-2H-benzo[1,4]thiazino)-17-methyl-morphinan-3-ol] | 15.5 min
O=C1/C(=C/c2ccccc2)CCN1[C@@H]1CC[C@@]2(O)[C@H]3Cc4ccc(O)c5c4[C@@]2(CCN3CC2CC2)[C@H]1O5 [Compound 50, 1-(17-cyclopropylmethyl-4,5α-epoxy-3,14-dihydroxy-morphinan-6β-yl)-3-benzylidene-pyrrolidin-2-one] | 12.8 min
O=c1c2ccccc2[nH]n1[C@@H]1CC[C@@]2(O)[C@H]3Cc4ccc(O)c5c4[C@@]2(CCN3CC2CC2)[C@H]1O5 [Compound 103, 2-(17-cyclopropylmethyl-4,5α-epoxy-3,14-dihydroxy-morphinan-6β-yl)-1,2-dihydro-indazol-3-one] | 13.1 min
CC(=O)O[C@@]12CC[C@@H](N3CC4=C(CCCC4)C3=O)[C@@H]3Oc4c(O)ccc5c4[C@@]31CCN(CC1CC1)[C@@H]2C5 [Compound 93, N-(14-acetoxy-17-cyclopropylmethyl-4,5α-epoxy-3-hydroxymorphinan-6β-yl)-2,3,4,5,6,7-hexahydro-isoindol-1-one] | 16.0 min
C=CCN1CC[C@]23c4c5ccc(O)c4O[C@H]2[C@H](N2C(=O)c4ccc(C)cc4C2=O)CC[C@@]3(O)[C@H]1C5 [Compound 56, N-(17-allyl-4,5α-epoxy-3,14-dihydroxymorphinan-6β-yl)-4-methylphthalimide] | 13.7 min
O=C1[C@H]2CCCC[C@H]2C(=O)N1[C@@H]1CC[C@@]2(O)[C@H]3Cc4ccc(O)c5c4[C@@]2(CCN3CC2CC2)[C@H]1O5 [Compound 69, N-(17-cyclopropylmethyl-4,5α-epoxy-3,14-dihydroxymorphinan-6β-yl)-hexahydrophthalimide] | 15.7 min
O=c1c2ccccc2[nH]c(=S)n1[C@@H]1CC[C@@]2(O)[C@H]3Cc4ccc(O)c5c4[C@@]2(CCN3CC2CC2)[C@H]1O5 [Compound 105, 3-(17-cyclopropylmethyl-4,5α-epoxy-3,14-dihydroxy-morphinan-6β-yl)-2-thioxo-2,3-dihydro-1H-quinazolin-4-one] | 7.3 min
C=CCN1CC[C@]23c4c5ccc(O)c4O[C@H]2[C@H](N2Cc4c(F)cccc4C2=O)CC[C@@]3(O)[C@H]1C5 [Compound 89, 2-(17-allyl-4,5α-epoxy-3,14-dihydroxy-morphinan-6β-yl)-4-fluoro-2,3-dihydro-isoindol-1-one] | 12.5 min
Nc1ccc2c(c1)C(=O)N([C@@H]1CC[C@@]3(O)[C@H]4Cc5ccc(O)c6c5[C@@]3(CCN4CC3CC3)[C@H]1O6)C2=O [Compound 98, N-(17-cyclopropylmethyl-4,5α-epoxy-3,14-dihydroxy-morphinan-6β-yl)-4-amino-phthalimide] | 7.2 min
O=C1c2cccnc2C(=O)N1[C@@H]1CC[C@@]2(O)[C@H]3Cc4ccc(O)c5c4[C@@]2(CCN3CC2CC2)[C@H]1O5 [Compound 80, N-(17-cyclopropylmethyl-4,5α-epoxy-3,14-dihydroxy-morphinan-6β-yl)-2,3-pyridinedicarboimide] | 1.1 min
C=CCN1CC[C@]23c4c5ccc(O)c4O[C@H]2[C@H](N2C(=O)c4cccc(N)c4C2=O)CC[C@@]3(O)[C@H]1C5 [Compound 100, N-(17-allyl-4,5α-epoxy-3,14-dihydroxy-morphinan-6β-yl)-3-amino-phthalimide] | 14.0 min

same assay, conditions: anesthetized female SD rats, intravenous, dose 0.3 mg/kg body weight

SMILES | Mean Inhibitory Time of Rhythmic Bladder Contractions
O=C1c2ccccc2CN1[C@@H]1CC[C@@]2(O)[C@H]3Cc4ccc(O)c5c4[C@@]2(CCN3CC2CC2)[C@H]1O5 [Compound 28, 2-(17-cyclopropylmethyl-4,5α-epoxy-3,14-dihydroxy-morphinan-6β-yl)-2,3-dihydro-isoisoindol-1-one] | 19.6 min
O=C1C(Cc2ccccc2)CCN1[C@H]1CC[C@@]2(O)[C@H]3Cc4ccc(O)c5c4[C@@]2(CCN3CC2CC2)[C@H]1O5 (stereo partly drawn) [Compound 35, 1-(17-cyclopropylmethyl-4,5α-epoxy-3,14-dihydroxy-morphinan-6α-yl)-3-benzyl-pyrrolidin-2-one] | 29.9 min

same assay, conditions: anesthetized female SD rats, intravenous, dose 1.0 mg/kg body weight

SMILES | Mean Inhibitory Time of Rhythmic Bladder Contractions
O=C1CCCN1[C@H]1CC[C@@]2(O)[C@H]3Cc4ccc(O)c5c4[C@@]2(CCN3CC2CC2)[C@H]1O5 [Compound 34, 1-(17-cyclopropylmethyl-4,5α-epoxy-3,14-dihydroxy-morphinan-6α-yl)-pyrrolidin-2-one] | 9.2 min
O=C1C(Cc2ccccc2)CCN1[C@@H]1CC[C@@]2(O)[C@H]3Cc4ccc(O)c5c4[C@@]2(CCN3CC2CC2)[C@H]1O5 (stereo partly drawn) [Compound 47, 1-(17-cyclopropylmethyl-4,5α-epoxy-3,14-dihydroxy-morphinan-6β-yl)-3-benzyl-pyrrolidin-2-one] | 21.8 min
